Assay results from the NIST ThermoML archive (doi:10.1021/acs.jced.8b00160).

How the values were obtained:
[1] = wn = mass fraction of the nth substance listed; conditions: 100 kPa, Liquid, Vibrating tube method
[2] = refractive index (Na D-line) (dimensionless); wn = mass fraction of the nth substance listed; conditions: 100 kPa, Liquid, Standard Abbe refractometry
[3] = refractive index (Na D-line) (dimensionless); conditions: 100 kPa, Liquid, Standard Abbe refractometry

O=P([O-])([O-])O.[K+].[K+] [dipotassium hydrogen phosphate] + O
298.15 K
Conditions	mass density, [1] [kg/m3]	refractive index, [2]
w1 = 0.02	1014.3	1.336
w1 = 0.05	1040.9	1.3401
w1 = 0.1	1086.7	1.3478
w1 = 0.15	1134	1.3551
w1 = 0.2	1183.1	1.3626
w1 = 0.25	1234.3	1.3697
w1 = 0.3	1287.3	1.3774

CC(C)O [propan-2-ol] + O
Conditions	mass density, 298.15 K [kg/m3]	mass density, 308.15 K [kg/m3]	mass density, 318.15 K [kg/m3]	refractive index, 298.15 K	refractive index, 308.15 K	refractive index, 318.15 K
[1], w1 = 0.1	979.9	976.9	973.7	–	–	–
[1], w1 = 0.2	966.6	958.7	954.8	–	–	–
[1], w1 = 0.3	946	941.9	934.4	–	–	–
[1], w1 = 0.4	925.7	916.8	911.5	–	–	–
[1], w1 = 0.5	901.7	896.2	887.6	–	–	–
[1], w1 = 0.6	879	871.6	862.4	–	–	–
[2], w1 = 0.1	–	–	–	1.3418	1.3372	1.3356
[2], w1 = 0.2	–	–	–	1.3506	1.3475	1.3447
[2], w1 = 0.3	–	–	–	1.3573	1.3559	1.3531
[2], w1 = 0.4	–	–	–	1.3629	1.3623	1.3596
[2], w1 = 0.5	–	–	–	1.367	1.3668	1.3643
[2], w1 = 0.6	–	–	–	1.3705	1.3694	1.3679

O=P([O-])([O-])[O-].[K+].[K+].[K+] [tripotassium phosphate] + O
Conditions	mass density, 298.15 K [kg/m3]	mass density, 308.15 K [kg/m3]	mass density, 318.15 K [kg/m3]	refractive index, 298.15 K	refractive index, 308.15 K	refractive index, 318.15 K
[1], w1 = 0.02	1015.8	1011.9	1008.3	–	–	–
[1], w1 = 0.05	1048.6	1045	1040.4	–	–	–
[1], w1 = 0.1	1106.7	1102.7	1100.3	–	–	–
[1], w1 = 0.15	1176.8	1172.6	1171.1	–	–	–
[1], w1 = 0.2	1203.4	1199.8	1194.9	–	–	–
[1], w1 = 0.25	1226.9	1223.5	1218	–	–	–
[1], w1 = 0.3	1241.7	1237.1	1231.8	–	–	–
[2], w1 = 0.02	–	–	–	1.3356	1.3346	1.3337
[2], w1 = 0.05	–	–	–	1.3413	1.3402	1.3386
[2], w1 = 0.1	–	–	–	1.3537	1.3512	1.3488
[2], w1 = 0.15	–	–	–	1.3651	1.3632	1.3606
[2], w1 = 0.2	–	–	–	1.3792	1.3768	1.3736
[2], w1 = 0.25	–	–	–	1.3962	1.3928	1.3885
[2], w1 = 0.3	–	–	–	1.418	1.4109	1.4029

O [water]
[3]
Conditions	refractive index
298.15 K	1.3324
308.15 K	1.3302
318.15 K	1.3298
